In PMC8534050, “Discovery of a Potent and Highly Isoform-Selective Inhibitor of the Neglected Ribosomal Protein S6 Kinase Beta 2 (S6K2)” (Cancers, 2021):

Key:
Test in all cases: DSF thermal shift assay
Assay type in all cases: binding
Conditions in all cases: inhibitor 10 μM, protein 2 μM
TOPK = molecular target: T1, TOPK (Homo sapiens, UniProt Q96KB5)
T1 construct: purchased in-house DSF (thermal shift) panel per Fedorov et al
Method: (§1) Differences in the melting temperature (ΔTm) were measured as described by Fedorov et al.. Purified proteins were buffered in 25 mM HEPES (pH 7.5), 500 mM NaCl and were assayed in a 384-well plate with a final protein concentration of 2 μM in 10 μL assay volume. Inhibitors were added to a final concentration of 10 μM using an ECHO 550 acoustic dispenser (Labcyte, San José, CA, USA). As a fluorescence probe, SYPRO-Orange (Molecular Probes, Eugene, OR, USA) was added in a 1:5000 dilution. […] Data were analyzed through Boltzmann equation in the Protein Thermal Shift software (Applied Biosystems, Waltham, MA, USA). Samples were measured in technical duplicates.

BMP2K = molecular target: T2, BMP2K (Homo sapiens, UniProt Q9NSY1)
T2 construct: purchased in-house DSF (thermal shift) panel per Fedorov et al
Method: as §1

BRD4 = molecular target: T3, BRD4 (Homo sapiens, UniProt O60885)
T3 construct: purchased in-house DSF (thermal shift) panel per Fedorov et al; IC50 follow-up at Reaction Biology Corp
Method: as §1

FES = molecular target: T4, FES (Homo sapiens, UniProt P07332)
T4 construct: purchased in-house DSF (thermal shift) panel per Fedorov et al; IC50 follow-up at Reaction Biology Corp
Method: as §1

RPS6KA1 = molecular target: T5, RPS6KA1 (Homo sapiens, UniProt Q15418)
T5 construct: purchased in-house DSF (thermal shift) panel per Fedorov et al
Method: as §1

BRPF1 = molecular target: T6, BRPF1 (Homo sapiens, UniProt P55201)
T6 construct: purchased in-house DSF (thermal shift) panel per Fedorov et al; IC50 follow-up at Reaction Biology Corp
Method: as §1

CLK1 = molecular target: T7, CLK1 (Homo sapiens, UniProt P49759)
T7 construct: purchased in-house DSF (thermal shift) panel per Fedorov et al; IC50 follow-up at Reaction Biology Corp
Method: as §1

MST3 = molecular target: T8, MST3 (Homo sapiens, UniProt Q9Y6E0)
T8 construct: purchased in-house DSF (thermal shift) panel per Fedorov et al
Method: as §1

GSK3B = molecular target: T9, GSK3B (Homo sapiens, UniProt P49841)
T9 construct: purchased in-house DSF (thermal shift) panel per Fedorov et al; IC50 follow-up at Reaction Biology Corp
Method: as §1

MAPK8 = molecular target: T10, MAPK8 (Homo sapiens, UniProt P45983)
T10 construct: purchased in-house DSF (thermal shift) panel per Fedorov et al; IC50 follow-up at Reaction Biology Corp
Method: as §1

NEK1 = molecular target: T11, NEK1 (Homo sapiens, UniProt Q96PY6)
T11 construct: purchased in-house DSF (thermal shift) panel per Fedorov et al
Method: as §1

GPRK5 = molecular target: T12, GPRK5 (Homo sapiens, UniProt P34947)
T12 construct: purchased in-house DSF (thermal shift) panel per Fedorov et al
Method: as §1

EPHA5 = molecular target: T13, EPHA5 (Homo sapiens, UniProt P54756)
T13 construct: purchased in-house DSF (thermal shift) panel per Fedorov et al; IC50 follow-up at Reaction Biology Corp
Method: as §1

PCTK1 = molecular target: T14, PCTK1 (Homo sapiens, UniProt Q00536)
T14 construct: purchased in-house DSF (thermal shift) panel per Fedorov et al; IC50 follow-up at Reaction Biology Corp
Method: as §1

STK17 = molecular target: T15, STK17 (Homo sapiens, UniProt Q9UEE5)
T15 construct: purchased in-house DSF (thermal shift) panel per Fedorov et al
Method: as §1

BMPR2 = molecular target: T16, BMPR2 (Homo sapiens, UniProt Q13873)
T16 construct: purchased in-house DSF (thermal shift) panel per Fedorov et al
Method: as §1

T8 sequence (Q9Y6E0 whole entry): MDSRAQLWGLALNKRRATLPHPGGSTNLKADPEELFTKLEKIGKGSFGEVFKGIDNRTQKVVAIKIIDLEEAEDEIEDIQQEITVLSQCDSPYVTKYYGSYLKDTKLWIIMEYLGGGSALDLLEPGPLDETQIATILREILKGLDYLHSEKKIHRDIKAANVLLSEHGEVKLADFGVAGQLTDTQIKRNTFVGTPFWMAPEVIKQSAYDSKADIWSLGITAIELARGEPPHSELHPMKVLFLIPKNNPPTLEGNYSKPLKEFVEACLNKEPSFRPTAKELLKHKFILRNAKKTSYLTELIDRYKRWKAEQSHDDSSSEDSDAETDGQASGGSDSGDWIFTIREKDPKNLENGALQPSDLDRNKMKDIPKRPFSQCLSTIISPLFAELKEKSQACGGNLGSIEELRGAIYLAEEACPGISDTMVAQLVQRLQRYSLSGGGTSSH
T7 sequence (P49759 whole entry): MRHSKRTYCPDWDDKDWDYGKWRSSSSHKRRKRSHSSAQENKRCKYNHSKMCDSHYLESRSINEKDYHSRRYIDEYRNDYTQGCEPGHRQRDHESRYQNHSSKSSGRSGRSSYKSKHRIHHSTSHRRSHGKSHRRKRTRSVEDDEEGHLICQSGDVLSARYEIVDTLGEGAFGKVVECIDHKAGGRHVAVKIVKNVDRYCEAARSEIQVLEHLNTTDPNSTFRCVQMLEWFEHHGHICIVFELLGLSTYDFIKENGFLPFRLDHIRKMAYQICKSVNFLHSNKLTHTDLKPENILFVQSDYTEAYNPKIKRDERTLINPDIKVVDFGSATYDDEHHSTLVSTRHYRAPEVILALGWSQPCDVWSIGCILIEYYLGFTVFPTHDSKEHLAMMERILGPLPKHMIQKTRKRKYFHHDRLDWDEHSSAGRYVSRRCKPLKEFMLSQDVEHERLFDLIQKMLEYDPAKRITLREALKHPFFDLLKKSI
T16 sequence (Q13873 27-1038): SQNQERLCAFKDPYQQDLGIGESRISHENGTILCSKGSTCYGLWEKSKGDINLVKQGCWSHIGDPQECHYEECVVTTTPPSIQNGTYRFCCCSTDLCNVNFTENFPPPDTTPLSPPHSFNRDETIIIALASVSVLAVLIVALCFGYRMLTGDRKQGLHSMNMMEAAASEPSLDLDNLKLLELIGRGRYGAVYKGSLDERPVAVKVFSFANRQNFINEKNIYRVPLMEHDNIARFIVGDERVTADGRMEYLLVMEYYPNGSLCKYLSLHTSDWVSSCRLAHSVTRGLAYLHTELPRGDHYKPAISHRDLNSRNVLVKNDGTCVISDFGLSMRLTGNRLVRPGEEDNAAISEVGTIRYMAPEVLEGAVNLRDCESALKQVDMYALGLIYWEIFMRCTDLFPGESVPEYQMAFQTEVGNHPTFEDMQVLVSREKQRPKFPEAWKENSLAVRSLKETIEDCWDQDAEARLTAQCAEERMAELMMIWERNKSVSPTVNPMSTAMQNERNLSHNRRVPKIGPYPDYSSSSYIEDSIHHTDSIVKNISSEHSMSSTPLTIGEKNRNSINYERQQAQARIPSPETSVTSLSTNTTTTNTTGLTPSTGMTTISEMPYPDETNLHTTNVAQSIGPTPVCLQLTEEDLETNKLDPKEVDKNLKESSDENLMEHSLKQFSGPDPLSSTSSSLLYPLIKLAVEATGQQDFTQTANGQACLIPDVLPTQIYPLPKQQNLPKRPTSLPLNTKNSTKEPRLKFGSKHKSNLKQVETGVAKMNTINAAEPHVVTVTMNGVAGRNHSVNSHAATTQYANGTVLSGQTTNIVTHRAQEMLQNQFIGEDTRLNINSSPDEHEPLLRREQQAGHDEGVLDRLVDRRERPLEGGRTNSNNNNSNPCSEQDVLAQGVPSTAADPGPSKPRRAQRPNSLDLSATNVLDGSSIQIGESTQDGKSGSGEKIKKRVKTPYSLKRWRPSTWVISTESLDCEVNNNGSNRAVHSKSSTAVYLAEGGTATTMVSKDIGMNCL
T9 sequence (P49841 whole entry): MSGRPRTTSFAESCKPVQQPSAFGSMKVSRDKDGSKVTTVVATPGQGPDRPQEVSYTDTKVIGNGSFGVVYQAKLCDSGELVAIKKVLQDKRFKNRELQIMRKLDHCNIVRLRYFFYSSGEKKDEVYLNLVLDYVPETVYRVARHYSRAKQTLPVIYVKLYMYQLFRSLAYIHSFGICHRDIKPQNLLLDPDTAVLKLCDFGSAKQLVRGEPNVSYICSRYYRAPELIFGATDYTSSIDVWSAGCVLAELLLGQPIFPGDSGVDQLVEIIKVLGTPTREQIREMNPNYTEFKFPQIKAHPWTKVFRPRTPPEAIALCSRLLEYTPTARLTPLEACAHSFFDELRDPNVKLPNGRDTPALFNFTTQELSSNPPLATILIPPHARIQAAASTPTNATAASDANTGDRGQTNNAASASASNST
T2 sequence (Q9NSY1 whole entry): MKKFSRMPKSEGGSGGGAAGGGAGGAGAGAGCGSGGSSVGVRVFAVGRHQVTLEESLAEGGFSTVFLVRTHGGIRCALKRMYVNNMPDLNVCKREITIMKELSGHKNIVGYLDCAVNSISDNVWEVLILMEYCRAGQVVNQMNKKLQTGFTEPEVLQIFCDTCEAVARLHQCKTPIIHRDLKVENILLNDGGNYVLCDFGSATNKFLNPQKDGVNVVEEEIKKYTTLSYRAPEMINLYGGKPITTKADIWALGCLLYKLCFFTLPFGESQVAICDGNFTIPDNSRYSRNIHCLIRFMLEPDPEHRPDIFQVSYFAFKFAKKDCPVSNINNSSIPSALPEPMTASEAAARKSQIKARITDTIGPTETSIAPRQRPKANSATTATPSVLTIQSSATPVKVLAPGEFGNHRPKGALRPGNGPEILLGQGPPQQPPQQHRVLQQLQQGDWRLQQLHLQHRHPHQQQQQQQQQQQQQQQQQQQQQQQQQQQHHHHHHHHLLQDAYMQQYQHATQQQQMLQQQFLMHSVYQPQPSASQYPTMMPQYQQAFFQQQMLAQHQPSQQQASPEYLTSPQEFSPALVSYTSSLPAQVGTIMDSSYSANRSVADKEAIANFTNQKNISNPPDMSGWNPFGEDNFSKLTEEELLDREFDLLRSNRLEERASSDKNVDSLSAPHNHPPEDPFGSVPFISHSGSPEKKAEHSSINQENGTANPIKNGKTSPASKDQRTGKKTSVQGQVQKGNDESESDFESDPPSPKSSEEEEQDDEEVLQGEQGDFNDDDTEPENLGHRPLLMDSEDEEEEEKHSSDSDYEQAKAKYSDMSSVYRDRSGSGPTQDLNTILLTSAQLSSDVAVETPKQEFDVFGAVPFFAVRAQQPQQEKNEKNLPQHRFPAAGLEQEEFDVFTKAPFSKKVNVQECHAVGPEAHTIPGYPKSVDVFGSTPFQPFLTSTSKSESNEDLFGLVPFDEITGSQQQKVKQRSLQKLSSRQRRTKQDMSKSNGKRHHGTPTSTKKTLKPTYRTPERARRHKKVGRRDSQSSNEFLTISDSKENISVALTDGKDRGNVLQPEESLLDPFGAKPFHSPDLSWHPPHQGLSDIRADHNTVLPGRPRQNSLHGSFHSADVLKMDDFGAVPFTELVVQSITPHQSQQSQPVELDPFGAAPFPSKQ
T5 sequence (Q15418 whole entry): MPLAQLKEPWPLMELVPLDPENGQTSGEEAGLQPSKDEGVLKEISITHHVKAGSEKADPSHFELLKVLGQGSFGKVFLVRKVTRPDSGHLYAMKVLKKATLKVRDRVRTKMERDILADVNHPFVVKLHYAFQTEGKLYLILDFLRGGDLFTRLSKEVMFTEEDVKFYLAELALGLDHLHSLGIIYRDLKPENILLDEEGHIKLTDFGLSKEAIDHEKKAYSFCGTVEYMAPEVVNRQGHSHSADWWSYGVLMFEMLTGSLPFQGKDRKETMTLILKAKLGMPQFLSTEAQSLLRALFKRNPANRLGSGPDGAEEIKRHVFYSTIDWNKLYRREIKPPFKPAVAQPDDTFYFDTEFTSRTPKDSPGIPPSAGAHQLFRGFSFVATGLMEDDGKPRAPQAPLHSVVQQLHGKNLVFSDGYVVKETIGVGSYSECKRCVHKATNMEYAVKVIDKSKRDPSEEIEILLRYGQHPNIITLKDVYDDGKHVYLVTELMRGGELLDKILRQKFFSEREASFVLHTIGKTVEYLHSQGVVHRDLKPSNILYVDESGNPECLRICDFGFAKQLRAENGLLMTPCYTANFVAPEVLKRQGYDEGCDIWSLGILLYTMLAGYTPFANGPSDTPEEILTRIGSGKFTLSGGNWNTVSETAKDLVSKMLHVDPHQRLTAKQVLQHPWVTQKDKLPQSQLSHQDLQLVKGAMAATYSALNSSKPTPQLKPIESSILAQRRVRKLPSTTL
T15 sequence (Q9UEE5 whole entry): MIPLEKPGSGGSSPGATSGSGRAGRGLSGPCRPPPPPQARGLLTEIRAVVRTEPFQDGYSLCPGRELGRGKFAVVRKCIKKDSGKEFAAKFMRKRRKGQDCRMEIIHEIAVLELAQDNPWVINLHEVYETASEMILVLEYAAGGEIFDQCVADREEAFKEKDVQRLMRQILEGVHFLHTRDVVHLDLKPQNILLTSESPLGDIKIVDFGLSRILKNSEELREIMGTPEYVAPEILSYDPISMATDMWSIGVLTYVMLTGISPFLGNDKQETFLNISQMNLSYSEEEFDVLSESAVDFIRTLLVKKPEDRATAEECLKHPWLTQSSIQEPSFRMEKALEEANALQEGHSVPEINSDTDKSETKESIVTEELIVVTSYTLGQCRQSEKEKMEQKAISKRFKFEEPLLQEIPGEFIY
T1 sequence (Q96KB5 whole entry): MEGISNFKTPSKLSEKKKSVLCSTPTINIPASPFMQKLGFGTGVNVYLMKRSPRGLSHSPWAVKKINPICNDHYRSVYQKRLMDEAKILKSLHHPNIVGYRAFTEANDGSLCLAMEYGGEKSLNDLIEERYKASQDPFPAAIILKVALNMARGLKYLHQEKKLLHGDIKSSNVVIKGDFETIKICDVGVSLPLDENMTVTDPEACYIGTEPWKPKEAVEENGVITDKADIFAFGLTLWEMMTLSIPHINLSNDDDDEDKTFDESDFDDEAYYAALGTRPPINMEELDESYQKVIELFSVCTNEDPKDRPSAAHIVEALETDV

## CCc1cnc(Nc2nc(Cl)ccc2[N+](=O)[O-])nc1N1CCN(Cc2nc3cc(C(F)(F)F)ccc3[nH]2)CC1 [Compound 2]
TOPK
  ΔTm at 10 µM: -0.5 °C
BMP2K
  ΔTm at 10 µM: 0 °C
BRD4
  ΔTm at 10 µM: -1 °C
FES
  ΔTm at 10 µM: 0 °C
RPS6KA1
  ΔTm at 10 µM: 0.3 °C
BRPF1
  ΔTm at 10 µM: 0.9 °C
CLK1
  ΔTm at 10 µM: 0.3 °C
MST3
  ΔTm at 10 µM: -0.3 °C
GSK3B
  ΔTm at 10 µM: 0.4 °C
MAPK8
  ΔTm at 10 µM: 0.3 °C
NEK1
  ΔTm at 10 µM: -0.7 °C
GPRK5
  ΔTm at 10 µM: -0.6 °C
EPHA5
  ΔTm at 10 µM: 0.5 °C
PCTK1
  ΔTm at 10 µM: -0.2 °C
STK17
  ΔTm at 10 µM: -0.7 °C
BMPR2
  ΔTm at 10 µM: -0.4 °C
